Values belong to the compound of their own block, whether it stands above or below them.
How the values were obtained:
[1] = in vivo; cited from earlier work
y globin chain = assay: Efficacy study in anemic rhesus monkeys: %y globin chain by HPLC; format: in vivo
Hemoglobin F = assay: Efficacy study in anemic rhesus monkeys: %Hb F by HPLC; format: in vivo
[2] = system: Fetal hemoglobin cells (F cells); assay: Efficacy study in anemic rhesus monkeys: %F cells; format: in vivo; details: for %F cell count: 8-10% before Phase I
[3] = rhesus monkey, in vivo
Procedure: The efficacy of compound IIIc administered in conjunction with hydroxyurea was tested on six anemic rhesus monkeys divided into three groups of two each. Each group was studied in two phases, as shown below. Fetal hemoglobin cells (F cells), Hemoglobin F level in total Hemoglobin (%Hb F) and %y globin chain levels were monitored before and after each of the two phases. %F cells were measured according to the protocol described in Betke et al, Blut., 4, pp. 241-9 (1958). %Hb F and %y globin chain synthesis were measured using High Performance Liquid Chromatography (HPLC) according to the protocol described in Huisman, J. Chromagtogr., 418, pp. 277 (1987).

[4] = system: colorectal carcinoma cell lines; details: cited from earlier work
pancreatic cancer cells = details: cited from earlier work
[5] = system: retinoblastoma cell lines; details: Human Y-79 retinoblastoma cell line; cited from earlier work
Erythroleukemic Cells = details: cited from earlier work
leukemia = details: cited from earlier work
[6] = Group I (hydroxyurea in Phase I, hydroxyurea + compound IIIc in Phase II)

Structure (SMILES): CCCC(=O)OCOC(=O)C(C)(C)C [AN-9]
metabolites / toxic effects [1]: elicit metabolites that may produce formaldehyde in vivo, leading to toxic effects in patients

levels of the triglycerides prior to or during the phases [3]: no detectable difference
Structure (SMILES): CCCC(=O)O[C@@H](C)C(=O)OCC [Compound IIIc]
Y-globin chain level, change (y globin chain; Groups II and III): no measurable change
HBf level, change (Hemoglobin F; Groups II and III): no measurable change
%F cell count ([2]; Animal 2, group II, end of Phase I (compound IIIc 1 g/kg/day, 5 weeks)): 15%
%F cell count ([2]; Animal 2, group II, end of Phase II (compound IIIc 1 g/kg/TID, 5 weeks)): 22%
%F cells, change ([2]; Groups II and III): small but significant increase
levels of ALT prior to or during the phases [3]: no detectable difference

Structure (SMILES): NC(=O)NO [Hydroxyurea]
%y-globin chain level, change (y globin chain; [6]): measurable increase
%Hb F, change (Hemoglobin F; [6]): measurable increase
%F cell count ([2]; Animal 1, group I, end of Phase I (hydroxyurea 50 mg/kg/day, 5 weeks)): 25%
levels of ALT prior to or during the phases [3]: no detectable difference
levels of the triglycerides prior to or during the phases [3]: no detectable difference

Structure (SMILES): CCCC(=O)[O-].[Na+] [Sodium butyrate]
apoptosis in colorectal carcinoma cell lines [4]: induce apoptosis
antigen expression in pancreatic cancer cells (pancreatic cancer cells): modify antigen expression
apoptosis in retinoblastoma cell lines [5]: induce apoptosis

Structure (SMILES): CCCC(=O)O [butyric acid]
cell differentiation in vitro (Erythroleukemic Cells): induces cell differentiation
effects in leukemia patients (leukemia): promising effects in leukemia patients

— US6225350A, “Butyrate prodrugs derived from lactic acid” (Vertex Pharmaceuticals, Inc., priority 1999, dated 2001)
